Measured values: patent US11427567B2, “Imidazolyl pyrimidinylamine compounds as CDK2 inhibitors” (Incyte Corporation, priority 2019, dated 2022)

These compounds were tested against CDK2/Cyclin E1 (Homo sapiens (Human), UniProt P24941) (assay: CDK2/Cyclin E1 HTRF enzyme activity assay (Example A)). Conditions: 1 mM ATP.
Format: biochemical
Description: Assays were conducted in white 384-well polystyrene plates in a final reaction volume of 8 μL. […] HTRF signals were read after 1 hour at room temperature on a PHERAstar FS plate reader (BMG Labtech). Data was analyzed with IDBS XLFit and GraphPad Prism 5.0 software using a three or four parameter dose response curve to determine IC50 for each compound.

IC50, ≤ 50 nM:
Cc1nc(-c2nc(NC3CCN(S(C)(=O)=O)CC3)ncc2C(F)(F)F)cn1-c1ccc(OCCN2CCCC2)cc1F [Example 424, 4-(1-(2-Fluoro-4-(2-(pyrrolidin-1-yl)ethoxy)phenyl)-2-methyl-1H-imidazol-4-yl)-N-(1-(mehtylsulfonyl)piperidin-4-yl)-5-(trifluoromethyl)pyrimidin-2-amine]
CS(=O)(=O)N1CCC(Nc2ncc(C(F)(F)F)c(-c3cn(-c4ccc(CN5CCN6CCCC6C5)cc4Cl)cn3)n2)CC1 (stereo not shown) [Example 212, 4-(1-(2-Chloro-4-((hexahydropyrrolo-[1,2-a]pyrazin-2(1H)-yl)methyl)phenyl)-1H-imidazol-4-yl)-N-(1-(methylsulfonyl)-piperidin-4-yl)-5-(trifluoromethyl)-pyrimidin-2-amine]
Cc1nc(-c2nc(NC3CCN(S(C)(=O)=O)CC3)ncc2C(F)(F)F)cn1-c1ccc(N2CCNCC2)cc1F [Example 111, 4-(1-(2-Fluoro-4-(piperazin-1-yl)-phenyl)-2-methyl-1H-imidazol-4-yl)-N-(1-(methyl-sulfonyl)piperidin-4-yl)-5-(trifluoro-methyl)pyrimidin-2-amine]
CCNCc1cc(F)c(-n2cnc(-c3nc(NC4CCN(S(C)(=O)=O)CC4)ncc3C(F)(F)F)c2)c(F)c1 [Example 349, 4-(1-(4-((Ethylamino)methyl)-2,6-difluorophenyl)-1H-imidazol-4-yl)-N-(1-(methylsulfonyl)piperidin-4-yl)-5-(trifluoromethyl)pyrimidin-2-amine]
CN1CCC(c2ccc(-n3cnc(-c4nc(NC5CCN(S(C)(=O)=O)CC5)ncc4C(F)(F)F)c3)c(Cl)c2)CC1 [Example 439, 4-(1-(2-Chloro-4-(1-methylpiperidin-4-yl)phenyl)-1H-imidazol-4-yl)-N-(1-(methylsulfonyl)piperidin-4-yl)-5-(trifluoromethyl)pyrimidin-2-amine]
CS(=O)(=O)N1CCC(Nc2ncc(C(F)(F)F)c(-c3cn(-c4cccc(CCN5CCOCC5)c4Cl)cn3)n2)CC1 [Example 369, 4-(1-(2-Chloro-3-(2-morpholinoethyl)phenyl)-1H-imidazol-4-yl)-N-(1-(methylsulfonyl)piperidin-4-yl)-5-(trifluoromethyl)pyrimidin-2-amine]
CS(=O)(=O)N1CC[C@@H](Nc2ncc(C(F)(F)F)c(-c3cn(-c4c(F)cc(CN5CCC5)cc4Cl)cn3)n2)[C@H](F)C1 [Example 404, 4-(1-(4-(Azetidin-1-ylmethyl)-2-chloro-6-fluorophenyl)-1H-imidazol-4-yl)-N-((3R,4R)-3-fluoro-1-(methylsulfonyl)piperidin-4-yl)-5-(trifluoromethyl)pyrimidin-2-amine]
Cc1nc(C(=O)NC(C)C)ccc1-n1cnc(-c2nc(NC3CCN(S(C)(=O)=O)CC3)ncc2C(F)(F)F)c1 [Example 133, N-Isopropyl-6-methyl-5-(4-(2-((1-(methyl-sulfonyl)piperidin-4-yl)amino)-5-(trifluoromethyl)-pyrimidin-4-yl)-1H-imidazol-1-yl)picolinamide]
CS(=O)(=O)N1CCC(Nc2ncc(C(F)(F)F)c(-c3cn(-c4ccc(CN5CCOC5=O)cc4Cl)cn3)n2)CC1 [Example 441, 3-(3-Chloro-4-(4-(2-((1-(methylsulfonyl)piperidin-4-yl)amino)-5-(trifluoromethyl)pyrimidin-4-yl)-1H-imidazol-1-yl)benzyl)oxazolidin-2-one]
CN1CCN(c2ccc(-n3cnc(-c4nc(NC5CCN(S(C)(=O)=O)CC5)ncc4C(F)(F)F)c3)c(Cl)c2)C1=O [Example 147, 1-(3-Chloro-4-(4-(2-((1-(methyl-sulfonyl)piperidin-4-yl)amino)-5-(trifluoromethyl)-pyrimidin-4-yl)-1H-imidazol-1-yl)-phenyl)-3-methyl-imidazolidin-2-one]
CCOc1ccc(-n2cnc(-c3nc(NC4CCN(S(C)(=O)=O)CC4)ncc3C(F)(F)F)c2)c(C#N)c1 [Example 436, 5-Ethoxy-2-(4-(2-((1-(methylsulfonyl)piperidin-4-yl)amino)-5-(trifluoromethyl)pyrimidin-4-yl)-1H-imidazol-1-yl)benzonitrile]
CCN1CCC(c2ccc(-n3cnc(-c4nc(NC5CCN(S(C)(=O)=O)CC5)ncc4C(F)(F)F)c3)c(Cl)c2)CC1 [Example 438, 4-(1-(2-Chloro-4-(1-ethylpiperidin-4-yl)phenyl)-1H-imidazol-4-yl)-N-(1-(methylsulfonyl)piperidin-4-yl)-5-(trifluoromethyl)pyrimidin-2-amine]
CNC(C)c1ccc(-n2cnc(-c3nc(NC4CCN(S(C)(=O)=O)CC4)ncc3C(F)(F)F)c2)c(Cl)c1 (single isomer, unassigned) [Example 276, 4-(1-(2-Chloro-4-(1-(methylamino)ethyl)phenyl)-1H-imidazol-4-yl)-N-(1-(methylsulfonyl)piperidin-4-yl)-5-(trifluoromethyl)pyrimidin-2-amine]
COCCNc1ccc(-n2cc(-c3nc(NC4CCN(S(C)(=O)=O)CC4)ncc3C(F)(F)F)nc2C)c(F)c1 [Example 112, 4-(1-(2-Fluoro-4-((2-methoxyethyl)-amino)phenyl)-2-methyl-1H-imidazol-4-yl)-N-(1-(methyl-sulfonyl)piperidin-4-yl)-5-(trifluoro-methyl)pyrimidin-2-amine]
CCN(C)CCCc1ccc(-n2cc(-c3nc(NC4CCN(S(C)(=O)=O)CC4)ncc3C(F)(F)F)nc2C)c(F)c1 [Example 460, 4-(1-(4-(3-(Ethyl(methyl)amino)propyl)-2-fluorophenyl)-2-methyl-1H-imidazol-4-yl)-N-(1-(methylsulfonyl)piperidin-4-yl)-5-(trifluoromethyl)pyrimidin-2-amine]
CS(=O)(=O)N1CCC(Nc2ncc(C(F)(F)F)c(-c3cn(-c4cnccc4C#N)cn3)n2)CC1 [Example 67, 3-(4-(2-((1-(Methylsulfonyl)piperidin-4-yl)amino)-5-(trifluoromethyl)pyrimidin-4-yl)-1H-imidazol-1-yl)isonicotinonitrile]
CCN1CCN(Cc2cc(F)c(-n3cnc(-c4nc(N[C@H]5CCN(S(C)(=O)=O)C[C@H]5F)ncc4C(F)(F)F)c3)c(F)c2)CC1 [Example 447, 4-(1-(4-((4-Ethylpiperazin-1-yl)methyl)-2,6-difluorophenyl)-1H-imidazol-4-yl)-N-((3R,45)-3-fluoro-1-(methylsulfonyl)piperidin-4-yl)-5-(trifluoromethyl)pyrimidin-2-amine]
CC1(O)CN(Cc2cccc(-n3cnc(-c4nc(NC5CCN(S(C)(=O)=O)CC5)ncc4C(F)(F)F)c3)c2Cl)C1 [Example 362, 1-(2-Chloro-3-(4-(2-((1-(methylsulfonyl)piperidin-4-yl)amino)-5-(trifluoromethyl)pyrimi-din-4-yl)-1H-imidazol-yl)benzyl)-3-methylazetidin-3-ol]
CNCc1ccc(-n2cnc(-c3nc(NC4CCN(S(C)(=O)=O)CC4)ncc3C(F)(F)F)c2)c(Cl)c1F [Example 268, 4-(1-(2-Chloro-3-fluoro-4-((methylamino)methyl)phenyl)-1H-imidazol-4-yl)-N-(1-(methylsulfonyl)piperidin-4-yl)-5-(trifluoromethyl)pyrimidin-2-amine]
CC1(C)CN(Cc2ccc(-n3cnc(-c4nc(NC5CCN(S(C)(=O)=O)CC5)ncc4C(F)(F)F)c3)c(Cl)c2)C1 [Example 200, 4-(1-(2-Chloro-4-((3,3-dimethyl-azetidin-1-yl)methyl)-phenyl)-1H-imidazol-4-yl)-N-(1-(methyl-sulfonyl)piperidin-4-yl)-5-(trifluoromethyl)-pyrimidin-2-amine]
Cc1nc(-c2nc(NC3CCN(S(C)(=O)=O)CC3)ncc2C(F)(F)F)cn1-c1ccc(N2CC[C@H](O)C2)cc1F [Example 116, (S)-1-(3-Fluoro-4-(2-methyl-4-(2-((1-(methylsulfonyl)-piperidin-4-yl)-amino)-5-(trifluoro-methyl)pyrimidin-4-yl)-1H-imidazol-1-yl)phenyl)pyrrolidin-3-ol]
CN(C)CCc1cccc(-n2cnc(-c3nc(NC4CCN(S(C)(=O)=O)CC4)ncc3C(F)(F)F)c2)c1Cl [Example 370, 4-(1-(2-Chloro-3-(2-(dimethylamino)ethyl)phe-nyl)-1H-imidazol-4-yl)-N-(1-(methylsulfonyl)piperidin-4-yl)-5-(trifluoromethyl)pyrimi-din-2-amine]
CCN1CCN(c2nccc(-n3cnc(-c4nc(NC5CCN(S(C)(=O)=O)CC5)ncc4C(F)(F)F)c3)c2C#N)CC1 [Example 315, 2-(4-Ethylpiperazin-1-yl)-4-(4-(2-((1-(methylsulfonyl)piperidin-4-yl)amino)-5-(trifluoromethyl)pyrimidin-4-yl)-1H-imidazol-1-yl)nicotinonitrile]
COc1ccc(-n2cnc(-c3nc(NC4CCN(S(C)(=O)=O)CC4)ncc3C(F)(F)F)c2)c(C#N)n1 [Example 39, 6-Methoxy-3-(4-(2-((1-(methylsulfonyl)piperidin-4-yl)amino)-5-(trifluoromethyl)pyrimidin-4-yl)-1H-imidazol-1-yl)picolinonitrile]
CN1CCN(CCc2ccc(-n3cnc(-c4nc(NC5CCN(S(C)(=O)=O)CC5)ncc4C(F)(F)F)c3)c(C#N)c2)CC1 [Example 457, 5-(2-(4-Methylpiperazin-1-yl)ethyl)-2-(4-(2-((1-(methylsulfonyl)piperidin-4-yl)amino)-5-(trifluoromethyl)pyrimidin-4-yl)-1H-imidazol-1-yl)benzonitrile]
